The values that follow come from patent US20260355192A1, “PROPHYLACTIC OR THERAPEUTIC AGENT FOR PERIOSTIN-MEDIATED DISEASE AND PRURITUS ASSOCIATED THEREWITH” (SAGA UNIVERSITY, priority 2022, published 2026).

The subject of assay [1] is neurons in the posterior horn surface of the spinal cord. As to the kind of experiment: In vivo extracellular recording from the posterior horn surface of the spinal cord in FADS mice (spontaneous firing). Conditions: 53.7 μmol/kg i.p.; FIG. 3. Details: species or system mouse (FADS). As for the experimental part:
In Vivo Extracellular Recording from the Posterior Horn Surface of the Spinal Cord in FADS Mice
FADS mice were administered intraperitoneally with 1.5 g/kg of urethane and anesthetized, followed by dorsal lumbar laminectomy. The first to sixth lumbar vertebrae were exposed, and each mouse was set on a stereotaxic apparatus. Under a microscope, the dural, arachnoidal and pial membranes were removed, and the spinal cord surface was warmed at 36±1 °C, followed by perfusion at 15 to 20 mL/min with an artificial cerebrospinal fluid (composition: NaCl (117 mM), KCl (3.6 mM), CaCl2) (2.5 mM), MgCl2 (1.2 mM), NaH2PO4 (1.2 mM), glucose (11 mM), NaHCO3 (25 mM)) saturated with 95% 02 to 5% CO2. Into the exposed spinal cord, a tungsten electrode (tip diameter: […], tip impedance: 9 to 12 MΩ) was inserted (latero-medial), and records were obtained from neurons in the posterior horn surface of the spinal cord.
CP4715 was dissolved at 89.5 mM in a diluent (physiological saline containing 50% DMSO and 89.5 mM hydrochloric acid), from which an amount corresponding to 53.7 μmol/kg per mouse was then taken and diluted with 0.3 mL of physiological saline, and then administered intraperitoneally (i.p.). 0.3 mL of physiological saline containing an equal amount of the diluent as calculated based on the body weight was administered as a control. When recorded from the spinal cord posterior horn of the FADS mice, neurons with spontaneous firing could be recorded. When the above control solution was first administered intraperitoneally, there was little change in the frequency of spontaneous firing during 30 minutes after administration.

The test system of assay [2] is scratching behaviors in FADS mice. As to the kind of experiment: Scratching behaviors in FADS mice upon single systemic administration of αvβ3 integrin inhibitors. In kind it is in vivo, mouse (FADS, Nestin-cre/Ikk2ff). From the text: Nestin-cre transgenic mice were crossed with IKK2^ff mice to prepare Nestin-cre/Ikk2^ff mice specifically lacking IKK2 in their facial skin fibroblasts (Nunomura S, et al. J Invest Dermatol. 139:1274-1283, 2019). These mice inevitably develop atopic dermatitis-like rash limited to the face and intense itchy symptoms, and were therefore designated as Facial Atopic Dermatitis with Scratching (FADS) mice. […] For evaluation of the prophylactic or therapeutic agent of the present invention, FADS mice at 3 to 4 weeks of age or older were used because of showing spontaneous scratching behaviors. It should be noted that in this Example section, the above compound of formula (I) (more particularly “CP4715”) was used as the prophylactic or therapeutic agent of the present invention.
FADS mice were acclimated for 20 minutes to the environment of a recording cage, and then recorded with a video camera. The recorded videos were replayed, and scratching behaviors were counted assuming that hind paw scratching to the face and the subsequent movement of toe licking or paw lowering to the ground were regarded as one cycle of scratching behavior.
Prior to the administration of the above αvβ3 integrin inhibitors, FADS mice were recorded for 60 minutes with a video camera and then allowed to rest for 15 minutes. The compounds except for GLPG-0187 were each dissolved at 89.5 mM in a diluent (physiological saline containing 50% DMSO and 89.5 mM HCL), from which an amount corresponding to 53.7 μmol/kg per mouse was then taken and diluted with 0.3 mL of PBS, and then administered intraperitoneally. […] Mice administered with 0.3 mL of PBS containing an equal amount of the diluent as calculated based on the body weight were used as a control group.
The mice were recorded for 60 minutes with a video camera immediately after administration of the above αvβ3 integrin inhibitors. The number of scratchings before administration was used as a baseline, and % change from the baseline after administration was calculated for each compound. For statistical analysis, paired t-test was used. A P-value of less than 0.05 was considered to be statistically significant. The effect of an inhibitor whose mean change from the baseline was −65% or more at a P-value of less than 0.01 was expressed as “++”; the effect of an inhibitor whose mean change from the baseline was −60% or less at a P-value of less than 0.05 was expressed as “+”; and the effect of an inhibitor whose mean change from the baseline was −60% or less at a P-value of 0.05 or higher was expressed as “−.”

The structures appear in SMILES notation.

For `COc1cc(C(=O)NC[C@H](NS(=O)(=O)c2ccccc2)C(=O)O)ccc1N1CCC(NC2=NCCCN2)CC1` [CP4715, (S)-3-(3-methoxy-4-(4-((1,4,5,6-tetrahydropyrimidin-2-yl)amino)piperidin-1-yl)benzamido)-2-(phenylsulfonamido)propanoic acid], in assay [1], the “time after administration at which firing returned to the initial frequency” value is 60 min, the “time after administration at which the frequency of firing started to decrease” value worked out at 20 min and the “time after administration at which the frequency of firing was most strongly suppressed” value turned out to be 40 min. The “% Change from baseline in the number of scratchings (mean ± standard error)” value in assay [2] (53.7 μmol/kg i.p., single, 60 minutes after administration vs before administration) is −68.0 ± 14.0%. Also, the “grade of effect on % change from the baseline in the number of scratchings” value in assay [2] (single i.p., 53.7 μmol/kg (GLPG-0187 5.37 μmol/kg), paired t-test) was “++ (mean change from the baseline was −65% or more at a P-value of less than 0.01)”.
